The values that follow come from patent EP0590919A1, “Therapeutic agents for parkinson's disease” (KYOWA HAKKO KOGYO CO., LTD., priority 1992, dated 1994).

The structures appear in SMILES notation.

The test system of the first data set is dd-strain male mice. In words: Acute toxicity test (minimum lethal dose, oral). The class given is in vivo. The following applies: oral administration, three mice per group, mortality seven days after administration. Here is the method: Test compounds were orally administered to groups of dd-strain male mice weighing 20 ± 1 g, each group consisting of three mice. Seven days after the administration, minimum lethal dose (MLD) of each compound was determined by observing the mortality.
As to `CCn1c(=O)c2[nH]c(/C=C/c3ccccc3F)nc2n(CC)c1=O` [Compound 97, (E)-1,3-Diethyl-8-(2-fluorostyryl)xanthine], the MLD was greater than 100 mg/kg.

`CCn1c(=O)c2c(nc(/C=C/c3ccccc3F)n2C)n(CC)c1=O` [Compound 98, (E)-1,3-Diethyl-8-(2-fluorostyryl)-7-methylxanthine] returned an MLD greater than 100 mg/kg.

Molecule `CCn1c(=O)c2c(nc(/C=C/c3ccc(-c4ccccc4)cc3)n2C)n(CC)c1=O` [Compound 101, (E)-1,3-Diethyl-7-methyl-8-(4-phenylstyryl)xanthine] registered an MLD greater than 100 mg/kg.

Molecule `CCn1c(=O)c2[nH]c(/C=C/c3ccc(OC)c(F)c3)nc2n(CC)c1=O` [Compound 102, (E)-1,3-Diethyl-8-(3-fluoro-4-methoxystyryl)xanthine] showed an MLD greater than 100 mg/kg.

As for `CCn1c(=O)c2c(nc(/C=C/c3ccc(F)c(Cl)c3)n2C)n(CC)c1=O` [Compound 105, (E)-8-(3-Chloro-4-fluorostyryl)-1,3-diethyl-7-methylxanthine], the MLD was greater than 100 mg/kg.

On to `CCn1c(=O)c2[nH]c(/C=C/c3cc(OC)c4c(c3)OCO4)nc2n(CC)c1=O` [Compound 106, (E)-1,3-Diethyl-8-(3-methoxy-4,5-methylenedioxystyryl)xanthine], for which the MLD is listed as greater than 100 mg/kg.

Turning to `CCn1c(=O)c2[nH]c(/C=C/c3cccc(F)c3C)nc2n(CC)c1=O` [Compound 108, (E)-1,3-Diethyl-8-(3-fluoro-2-methylstyryl)xanthine], the MLD is reported as greater than 100 mg/kg.

`CCn1c(=O)c2c(nc(/C=C/c3ccc(OCCCCBr)cc3)n2C)n(CC)c1=O` [Compound 114, (E)-8-[4-(4-Bromobutoxy)styryl]-1,3-diethyl-7-methylxanthine] registered an MLD greater than 100 mg/kg.

As to `CCn1c(=O)c2c(nc(/C=C/c3ccc(OCCCCN=[N+]=[N-])cc3)n2C)n(CC)c1=O` [Compound 115, (E)-8-[4-(4-Azidobutoxy)styryl]-1,3-diethyl-7-methylxanthine], the MLD is greater than 100 mg/kg.

Regarding `CCn1c(=O)c2c(nc(/C=C/c3cccc(Oc4ccccc4)c3)n2C)n(CC)c1=O` [Compound 120, (E)-1,3-Diethyl-7-methyl-8-(3-phenoxystyryl)xanthine], the MLD was greater than 100 mg/kg.

The next data set deals with T1, A₂ receptor (Rattus norvegicus, UniProt P30543).
T1 construct: from tissue; host or cells: rat corpus striatum membrane preparation
T1 sequence (P30543 whole entry): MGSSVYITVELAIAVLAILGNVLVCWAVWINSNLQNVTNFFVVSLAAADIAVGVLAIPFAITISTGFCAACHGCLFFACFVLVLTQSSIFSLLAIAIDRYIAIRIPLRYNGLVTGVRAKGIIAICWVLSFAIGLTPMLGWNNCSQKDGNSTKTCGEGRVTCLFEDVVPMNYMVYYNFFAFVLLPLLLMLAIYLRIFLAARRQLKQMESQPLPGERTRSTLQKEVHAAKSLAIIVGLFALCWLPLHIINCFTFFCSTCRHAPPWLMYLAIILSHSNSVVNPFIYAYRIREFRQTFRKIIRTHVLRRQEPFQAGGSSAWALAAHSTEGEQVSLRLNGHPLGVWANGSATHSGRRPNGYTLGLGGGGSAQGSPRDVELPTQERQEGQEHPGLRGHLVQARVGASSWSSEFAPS
In words: Adenosine A₂ receptor binding test (³H-CGS 21680 binding). The following applies: 10^-6M; [^3H]CGS 21680 was used, rat corpus striatum; read-out: A2 Receptor Inhibition (%). Here is the method: The similar procedure as in the above-described adenosine A₁ receptor binding test was repeated using rat corpus striatum to obtain the final precipitate of the tissue thereof. The precipitate was suspended in 50 mM Tris HCl buffer containing 10 mM magnesium chloride and 0.02 unit/mg tissue of adenosine deaminase (manufactured by Sigma Co.) to give a tissue concentration of 5 mg (wet weight)/ml.
The similar procedure as above was repeated to determine the radioactivity bound to the A₂ receptors using 50 µl of CGS 21680 labeled with tritium [³H-2-[p-(2-carboxyethyl)-phenethylamino]-5'-(N-ethylcarboxamide)adenosine: 40 Ci/mmol, manufactured by New England Nuclear Co. (J. Pharmacol. Exp. Ther., 251, 888 (1989)] (final concentration: 4.0 nM) in place of 50 µl of the mixture of N-ethylcarboxamidoadenosine labeled with tritium (³H-NECA: 26 Ci/mmol, manufactured by Amersham Co.) (final concentration: 3.8 nM) and cyclopentyladenosine (CPA, manufactured by Sigma Co.) (final concentration: 50 nM).
The inhibition rate of the test compound against the binding of A₂ receptors (³H-CGS 21680 binding) was calculated by the following equation: [formula] [Notes] • 1. "B" means the amount of radioactivity of ³H-CGS 21680 bound in the presence of a test compound at a concentration shown in Table 4. • 2. "T" means the amount of radioactivity of ³H-CGS 21680 bound in the absence of a test compound. • 3. "N" means the amount of radioactivity of ³H-CGS 21680 bound in the presence of 100 µM CPA.
The inhibition is the change of the read-out against control, counted positive when it falls. Take `CCn1c(=O)c2[nH]c(/C=C/c3ccccc3F)nc2n(CC)c1=O` [Compound 97, (E)-1,3-Diethyl-8-(2-fluorostyryl)xanthine]: the inhibition at 1 µM stood at 87%.

As for `CCn1c(=O)c2c(nc(/C=C/c3ccccc3F)n2C)n(CC)c1=O` [Compound 98, (E)-1,3-Diethyl-8-(2-fluorostyryl)-7-methylxanthine], the inhibition at 1 µM was found to be 95%.

For the molecule `CCn1c(=O)c2c(nc(/C=C/c3ccc(-c4ccccc4)cc3)n2C)n(CC)c1=O` [Compound 101, (E)-1,3-Diethyl-7-methyl-8-(4-phenylstyryl)xanthine], the inhibition at 1 µM came out at 76%.

On to `CCn1c(=O)c2[nH]c(/C=C/c3ccc(OC)c(F)c3)nc2n(CC)c1=O` [Compound 102, (E)-1,3-Diethyl-8-(3-fluoro-4-methoxystyryl)xanthine], for which the inhibition at 1 µM was 94%.

Consider `CCn1c(=O)c2c(nc(/C=C/c3ccc(F)c(Cl)c3)n2C)n(CC)c1=O` [Compound 105, (E)-8-(3-Chloro-4-fluorostyryl)-1,3-diethyl-7-methylxanthine], for which the inhibition at 1 µM is 96%.

Take `CCn1c(=O)c2[nH]c(/C=C/c3cc(OC)c4c(c3)OCO4)nc2n(CC)c1=O` [Compound 106, (E)-1,3-Diethyl-8-(3-methoxy-4,5-methylenedioxystyryl)xanthine]: the inhibition at 1 µM stood at 94%.

On to `CCn1c(=O)c2[nH]c(/C=C/c3cccc(F)c3C)nc2n(CC)c1=O` [Compound 108, (E)-1,3-Diethyl-8-(3-fluoro-2-methylstyryl)xanthine], for which the inhibition at 1 µM worked out at 94%.

Consider `CCn1c(=O)c2c(nc(/C=C/c3ccc(OCCCCBr)cc3)n2C)n(CC)c1=O` [Compound 114, (E)-8-[4-(4-Bromobutoxy)styryl]-1,3-diethyl-7-methylxanthine], for which the inhibition at 1 µM came to 87%.

`CCn1c(=O)c2c(nc(/C=C/c3ccc(OCCCCN=[N+]=[N-])cc3)n2C)n(CC)c1=O` [Compound 115, (E)-8-[4-(4-Azidobutoxy)styryl]-1,3-diethyl-7-methylxanthine]: the inhibition at 1 µM is 79%.

As for `CCn1c(=O)c2c(nc(/C=C/c3cccc(Oc4ccccc4)c3)n2C)n(CC)c1=O` [Compound 120, (E)-1,3-Diethyl-7-methyl-8-(3-phenoxystyryl)xanthine], the inhibition at 1 µM came out at 75%.

The data set is the same for the next values; noted with them: 10^-7M; [^3H]CGS 21680 was used, rat corpus striatum; read-out: A2 Receptor Inhibition (%).
For `CCn1c(=O)c2[nH]c(/C=C/c3ccccc3F)nc2n(CC)c1=O` [Compound 97, (E)-1,3-Diethyl-8-(2-fluorostyryl)xanthine], the inhibition at 0.1 µM was determined as 66%.

`CCn1c(=O)c2c(nc(/C=C/c3ccccc3F)n2C)n(CC)c1=O` [Compound 98, (E)-1,3-Diethyl-8-(2-fluorostyryl)-7-methylxanthine]: the inhibition at 0.1 µM was found to be 92%.

In the case of `CCn1c(=O)c2c(nc(/C=C/c3ccc(-c4ccccc4)cc3)n2C)n(CC)c1=O` [Compound 101, (E)-1,3-Diethyl-7-methyl-8-(4-phenylstyryl)xanthine], the inhibition at 0.1 µM was 36%.

Consider `CCn1c(=O)c2[nH]c(/C=C/c3ccc(OC)c(F)c3)nc2n(CC)c1=O` [Compound 102, (E)-1,3-Diethyl-8-(3-fluoro-4-methoxystyryl)xanthine], for which the inhibition at 0.1 µM is 70%.

As for `CCn1c(=O)c2c(nc(/C=C/c3ccc(F)c(Cl)c3)n2C)n(CC)c1=O` [Compound 105, (E)-8-(3-Chloro-4-fluorostyryl)-1,3-diethyl-7-methylxanthine], the inhibition at 0.1 µM is 76%.

Regarding `CCn1c(=O)c2[nH]c(/C=C/c3cc(OC)c4c(c3)OCO4)nc2n(CC)c1=O` [Compound 106, (E)-1,3-Diethyl-8-(3-methoxy-4,5-methylenedioxystyryl)xanthine], the inhibition at 0.1 µM was determined as 83%.

On to `CCn1c(=O)c2[nH]c(/C=C/c3cccc(F)c3C)nc2n(CC)c1=O` [Compound 108, (E)-1,3-Diethyl-8-(3-fluoro-2-methylstyryl)xanthine], for which the inhibition at 0.1 µM worked out at 87%.

Consider `CCn1c(=O)c2c(nc(/C=C/c3ccc(OCCCCBr)cc3)n2C)n(CC)c1=O` [Compound 114, (E)-8-[4-(4-Bromobutoxy)styryl]-1,3-diethyl-7-methylxanthine], for which the inhibition at 0.1 µM worked out at 23%.

Take `CCn1c(=O)c2c(nc(/C=C/c3ccc(OCCCCN=[N+]=[N-])cc3)n2C)n(CC)c1=O` [Compound 115, (E)-8-[4-(4-Azidobutoxy)styryl]-1,3-diethyl-7-methylxanthine]: the inhibition at 0.1 µM was determined as 34%.

Take `CCn1c(=O)c2c(nc(/C=C/c3cccc(Oc4ccccc4)c3)n2C)n(CC)c1=O` [Compound 120, (E)-1,3-Diethyl-7-methyl-8-(3-phenoxystyryl)xanthine]: the inhibition at 0.1 µM is 89%.
